Like-named read-outs stand apart in the source and are kept apart here.
Tests used:
[1] = molecular target: T1, human 11β-HSD1 (Homo sapiens, UniProt P28845); assay: biochemical; settings: Biological Test Example 2 IC50 Range, microsomes from CHO cells overexpressing human 11β-HSD1, SPA
Protocol: (§1) All reactions are carried out at room temperature in 96 well clear flexible PET Microbeta plates (PerkinElmer). […] The reaction is stopped by adding 50 μl of the SPA beads suspension containing 10 μM 18β-glycyrrhetinic acid, 5 mg/ml protein A coated YSi SPA beads (GE Healthcare) and 3.3 μg/ml of anti-cortisol antibody (East Coast Biologics) in Superblock buffer (Bio-Rad). The plates are then shaken for 120 minutes at room temperature, and the SPA signal corresponding to [^3H]cortisol is measured on a Microbeta plate reader.

[2] = molecular target: T1, human 11β-HSD1; settings: for IC50: read-out: Biological Test Example 2 IC50 Range, microsomes from CHO cells overexpressing human 11β-HSD1, SPA
Protocol: as §1

T1 sequence (P28845 whole entry): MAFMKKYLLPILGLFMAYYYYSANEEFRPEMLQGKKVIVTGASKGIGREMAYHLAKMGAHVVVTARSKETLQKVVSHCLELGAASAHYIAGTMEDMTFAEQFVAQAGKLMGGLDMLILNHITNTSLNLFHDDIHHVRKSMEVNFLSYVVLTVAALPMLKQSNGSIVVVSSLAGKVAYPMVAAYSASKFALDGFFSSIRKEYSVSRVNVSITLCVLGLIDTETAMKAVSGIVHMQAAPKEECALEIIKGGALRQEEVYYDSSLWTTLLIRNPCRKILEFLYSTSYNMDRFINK

SMILES	IC50 [1]	Biological Test Example 2 Average % inhibition at 100 nm [2]	IC50 [2]	Biological Test Example 2 Average % inhibition at 111 nm [2]
NC(=O)C12CC3CC(C1)C(OC(=O)N1CC[C@@H](NC(=O)OCc4ccccc4)C1)C(C3)C2 (single isomer, unassigned) [Example 25 Isomer 2]	< 100 nM	91.3%		
CC(C)(C)OC(=O)N1CCCC12CCN(C(=O)OC1C3CC4CC1CC(C(N)=O)(C4)C3)C2 (single isomer, unassigned) [Example 30 Isomer 2, 1-tert-butyl 7-(trans-1-carbamoyl-4-adamantyl) 1,7-diazaspiro[4.4]nonane-1,7-dicarboxylate]	< 100 nM	91.3%		
CC(C)(C)OC(=O)N1CCC2CN(C(=O)OC3C4CC5CC3CC(C(N)=O)(C5)C4)CC21 (single isomer, unassigned) [Example 23 Isomer 1, 1-tert-butyl 5-(cis-1-carbamoyl-4-adamantyl)hexahydropyrrolo[3,4-b]pyrrole-1,5-dicarboxylate]	> 100 nM	35.4%		
CC1(NC(=O)OC(C)(C)C)CCN(C(=O)OC2C3CC4CC2CC(C(N)=O)(C4)C3)C1 (single isomer, unassigned) [Example 22 Isomer 2, (trans-1-carbamoyl-4-adamantyl) 3-(tert-butoxycarbonylamino)-3-methylpyrrolidine-1-carboxylate]	< 100 nM	95.5%		
CNC(=O)C12CC3CC(C1)C(OC(=O)N1CC[C@@H](Nc4ccc(C#N)cn4)C1)C(C3)C2 (single isomer, unassigned) [Example 114 Isomer 1]	> 100 nM	11.8%		
NC(=O)C12CC3CC(C1)C(OC(=O)N1CC[C@@H](Nc4ncccn4)C1)C(C3)C2 (single isomer, unassigned) [Example 62 Isomer 1]	< 100 nM	40.8%		
CNC(=O)C12CC3CC(C1)C(OC(=O)N1CC[C@@H](Nc4ccc(C#N)cn4)C1)C(C3)C2 (single isomer, unassigned) [Example 114 Isomer 2]	< 100 nM	58.4%		
CC(C)(C)OC(=O)NC1(Cc2ccccc2)CCN(C(=O)OC2C3CC4CC2CC(C(N)=O)(C4)C3)C1 (single isomer, unassigned) [Example 29 Isomer 2.1, (trans-1-carbamoyl-4-adamantyl) 3-benzyl-3-(tert-butoxycarbonylamino)pyrrolidine-1-carboxylate]	< 100 nM	96.9%		
N#Cc1ccc(N[C@@H]2CCN(C(=O)OC3C4CC5CC3CC(C(=O)NC3CC3)(C5)C4)C2)nc1 (single isomer, unassigned) [Example 118 Isomer 2]		7.15%	> 100 nM	
CC1(NC(=O)OC(C)(C)C)CCN(C(=O)OC2C3CC4CC2CC(C(N)=O)(C4)C3)C1 (single isomer, unassigned) [Example 22 Isomer 2.2, (trans-1-carbamoyl-4-adamantyl) 3-(tert-butoxycarbonylamino)-3-methylpyrrolidine-1-carboxylate]	< 100 nM	82.7%		
CC(C)COC(=O)NC1CCN(C(=O)OC2C3CC4CC2CC(C(N)=O)(C4)C3)C1 (single isomer, unassigned) [Example 18 Isomer 1, (cis-1-carbamoyl-4-adamantyl) (3R-(isobutoxycarbonylamino)pyrrolidine-1-carboxylate)]	> 100 nM	22.6%		
N#Cc1ccc(N[C@@H]2CCN(C(=O)NC3CC4CCC(C3)N4C(N)=O)C2)nc1 (single isomer, unassigned) [Example 104 Isomer 1]			> 1000 nM	−6.2%
N#Cc1ccc(N[C@@H]2CCN(C(=O)NC3CC4CCC(C3)N4C(N)=O)C2)nc1 (single isomer, unassigned) [Example 104 Isomer 2]			> 1000 nM	−6.1%

Source: US8828985B2, “Carbamate and urea inhibitors of 11-beta-hydroxysteroid dehydrogenase 1” (Vitae Pharmaceuticals, Inc., priority 2008, dated 2014)
